In the supplement of paper PMC11208160:

Assay: recombinant UMI read abundance after kanamycin selection (control-corrected) (log10(CPM+1)); higher = more efficient recombination; extreme values may be limits of the assay; sequences stand for … in AGTGCAGAGAAAATCGGCCAGTTTTCTCTGCCTGCAGTCCGCATGCCGTGGGACCCCTTGGGTTCTAACCTGTTGCCTAGATTTATGCAGCGGACTGCCTTTCTCCCAAAGTGATAAACCGG…AGGTTGGTTTCACT; site = the 11-nt donor
Method in brief: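 Reported values are log10(CPM+1) from a pooled Escherichia coli screen of donor and donor-binding-loop pairs for the IS621 bridge recombinase. Selection used IPTG (0.07 mM) plus kanamycin, against unselected plating, each in two replicates. Recombinant UMIs were amplified across the donor–target junction, sequenced, converted to CPM, averaged over replicates and scaled by control-derived factors.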
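Note: IS621 bridge recombinase in Escherichia coli cells against a fixed T5 target plasmid.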

Going from “CAAGGTGCATGGACCGGTTTTCCCGGTAATCCGTATTTGAT (site CAAGGTGCTAT)” to “CAAGGTGCATGGACCGGTTTTCCCGGTAATCCGTATTTGAT (site CCAGGTGCTAT)”, the “recombinant UMI read abundance (log10)” value falls from 2.52 to 0.8.

Compared with “CAAGGTGCATGGACCGGTTTTCCCGGTAATCCGTATTTGAT (site CGAGGTGCTAT)”, “CAAGGTGCATGGACCGGTTTTCCCGGTAATCCGTATTTGAT (site CTAGGTGCTAT)” is higher in “recombinant UMI read abundance (log10)” value: 1.13 for the first, 1.67 for the second.

First: CAAGTAGCATGGACCGGTTTTCCCGGTAATCCGTATTTGCT (site CAAGAAGCTAG)
Second: CAAGTAGCATGGACCGGTTTTCCCGGTAATCCGTATTTGCT (site CAAGCAGCTAG)
The “recombinant UMI read abundance (log10)” value of the first is lower: 0 for the first, 0.378 for the second.

Compared with “CAAGTAGCATGGACCGGTTTTCCCGGTAATCCGTATTTGCT (site CAAGGAGCTAG)”, “CAAGTAGCATGGACCGGTTTTCCCGGTAATCCGTATTTGCT (site CAAGTAGCTAG)” is higher in “recombinant UMI read abundance (log10)” value: 0.0678 for the first, 1.66 for the second.

First: CAAGTATCATGGACCGGTTTTCCCGGTAATCCGTATTTGAG (site CAAGTATCTCT)
Second: CAAGTATCATGGACCGGTTTTCCCGGTAATCCGTATTTGAG (site CTAGTATCTGT)
The “recombinant UMI read abundance (log10)” value of the first is higher: 3.07 for the first, 0 for the second.

Going from “CAAGTCACATGGACCGGTTTTCCCGGTAATCCGTATTTGGA (site CAAGTCACTAC)” to “CAAGTCACATGGACCGGTTTTCCCGGTAATCCGTATTTGGA (site CAAGTCACTCC)”, the “recombinant UMI read abundance (log10)” value rises from 0.358 to 0.638.

Going from “CAAGTCACATGGACCGGTTTTCCCGGTAATCCGTATTTGGA (site CAAGTCACTGC)” to “CAAGTCACATGGACCGGTTTTCCCGGTAATCCGTATTTGGA (site CAAGTCACTTC)”, the “recombinant UMI read abundance (log10)” value rises from 0.803 to 2.03.

“CAAGTCACATGGACCGGTTTTCCCGGTAATCCGTATTTGTG (site CAAGTCACTCA)” and “CAAGTCACATGGACCGGTTTTCCCGGTAATCCGTATTTGTG (site CAAGTCACTCC)” are within 0.2 log units of each other in “recombinant UMI read abundance (log10)” value: 0.0199 for the first, 0.0385 for the second.

“CAAGTCACATGGACCGGTTTTCCCGGTAATCCGTATTTGTG (site CAAGTCACTCG)” and “CAAGTCACATGGACCGGTTTTCCCGGTAATCCGTATTTGTG (site CAAGTCACTCT)” are within 0.2 log units of each other in “recombinant UMI read abundance (log10)” value: 0.151 for the first, 0.103 for the second.

“CAAGTCCCATGGACCGGTTTTCCCGGTAATCCGTATTTGGG (site CAAGTCACTCC)” and “CAAGTCCCATGGACCGGTTTTCCCGGTAATCCGTATTTGGG (site CAAGTCCCTCC)” are within 0.2 log units of each other in “recombinant UMI read abundance (log10)” value: 0.0127 for the first, 0.00917 for the second.

“CAAGTCCCATGGACCGGTTTTCCCGGTAATCCGTATTTGGG (site CAAGTCGCTCC)” and “CAAGTCCCATGGACCGGTTTTCCCGGTAATCCGTATTTGGG (site CAAGTCTCTCC)” are within 0.2 log units of each other in “recombinant UMI read abundance (log10)” value: 0.0161 for the first, 0.025 for the second.

“CAAGTGCCATGGACCGGTTTTCCCGGTAATCCGTATTTGTG (site CAAGAGCCTCA)” and “CAAGTGCCATGGACCGGTTTTCCCGGTAATCCGTATTTGTG (site CAAGCGCCTCA)” are within 0.2 log units of each other in “recombinant UMI read abundance (log10)” value: 0.354 for the first, 0.389 for the second.

First: CAAGTGCCATGGACCGGTTTTCCCGGTAATCCGTATTTGTG (site CAAGGGCCTCA)
Second: CAAGTGCCATGGACCGGTTTTCCCGGTAATCCGTATTTGTG (site CAAGTGCCTCA)
The “recombinant UMI read abundance (log10)” value of the first is lower: 0.21 for the first, 0.662 for the second.

Compared with “CAATCGACATGGACCGGTTTTCCCGGTAATCCGTATTTGGG (site CAATCGACTCC)”, “CAATCGACATGGACCGGTTTTCCCGGTAATCCGTATTTGGG (site CACTCGACTCC)” is higher in “recombinant UMI read abundance (log10)” value: 0.0993 for the first, 0.335 for the second.

“CAATCGACATGGACCGGTTTTCCCGGTAATCCGTATTTGGG (site CAGTCGACTCC)” and “CAATCGACATGGACCGGTTTTCCCGGTAATCCGTATTTGGG (site CATTCGACTCC)” are within 0.2 log units of each other in “recombinant UMI read abundance (log10)” value: 0 for the first, 0.0172 for the second.

First: CAATCGACATGGACCGGTTTTCCCGGTAATCCGTATTTGTT (site CAATCGACTAA)
Second: CAATCGACATGGACCGGTTTTCCCGGTAATCCGTATTTGTT (site CCATCGACTAA)
The “recombinant UMI read abundance (log10)” value of the first is higher: 0.347 for the first, 0.0214 for the second.

“CAATCGACATGGACCGGTTTTCCCGGTAATCCGTATTTGTT (site CGATCGACTAA)” and “CAATCGACATGGACCGGTTTTCCCGGTAATCCGTATTTGTT (site CTATCGACTAA)” are within 0.2 log units of each other in “recombinant UMI read abundance (log10)” value: 0.0271 for the first, 0.0699 for the second.

Going from “CAATGCTCATGGACCGGTTTTCCCGGTAATCCGTATTTGAA (site AAATGCTCTTT)” to “CAATGCTCATGGACCGGTTTTCCCGGTAATCCGTATTTGAA (site CAAAGCTCTTT)”, the “recombinant UMI read abundance (log10)” value rises from 0.129 to 0.393.

First: CAATGCTCATGGACCGGTTTTCCCGGTAATCCGTATTTGAA (site CAACGCTCTTT)
Second: CAATGCTCATGGACCGGTTTTCCCGGTAATCCGTATTTGAA (site CAAGGCTCTTT)
The “recombinant UMI read abundance (log10)” value of the first is higher: 1.58 for the first, 0.0098 for the second.

First: CAATGCTCATGGACCGGTTTTCCCGGTAATCCGTATTTGAA (site CAATACTCTTT)
Second: CAATGCTCATGGACCGGTTTTCCCGGTAATCCGTATTTGAA (site CAATCCTCTTT)
The “recombinant UMI read abundance (log10)” value of the first is higher: 1.94 for the first, 0.0831 for the second.

Compared with “CAATGCTCATGGACCGGTTTTCCCGGTAATCCGTATTTGAA (site CAATGATCTTT)”, “CAATGCTCATGGACCGGTTTTCCCGGTAATCCGTATTTGAA (site CAATGCACTTT)” is lower in “recombinant UMI read abundance (log10)” value: 0.389 for the first, 0.182 for the second.

First: CAATGCTCATGGACCGGTTTTCCCGGTAATCCGTATTTGAA (site CAATGCCCTTT)
Second: CAATGCTCATGGACCGGTTTTCCCGGTAATCCGTATTTGAA (site CAATGCGCTTT)
The “recombinant UMI read abundance (log10)” value of the first is higher: 1.25 for the first, 0.0142 for the second.

“CAATGCTCATGGACCGGTTTTCCCGGTAATCCGTATTTGAA (site CAATGCTCTAT)” and “CAATGCTCATGGACCGGTTTTCCCGGTAATCCGTATTTGAA (site CAATGCTCTCT)” are within 0.2 log units of each other in “recombinant UMI read abundance (log10)” value: 1.03 for the first, 0.924 for the second.

“CAATGCTCATGGACCGGTTTTCCCGGTAATCCGTATTTGAA (site CAATGCTCTGT)” and “CAATGCTCATGGACCGGTTTTCCCGGTAATCCGTATTTGAA (site CAATGCTCTTA)” are within 0.2 log units of each other in “recombinant UMI read abundance (log10)” value: 0.818 for the first, 0.908 for the second.

“CAATGCTCATGGACCGGTTTTCCCGGTAATCCGTATTTGAA (site CAATGCTCTTC)” and “CAATGCTCATGGACCGGTTTTCCCGGTAATCCGTATTTGAA (site CAATGCTCTTG)” are within 0.2 log units of each other in “recombinant UMI read abundance (log10)” value: 0.687 for the first, 0.554 for the second.

Going from “CAATGCTCATGGACCGGTTTTCCCGGTAATCCGTATTTGAA (site CAATGCTCTTT)” to “CAATGCTCATGGACCGGTTTTCCCGGTAATCCGTATTTGAA (site CAATGGTCTTT)”, the “recombinant UMI read abundance (log10)” value falls from 2.57 to 0.0124.

“CAATGCTCATGGACCGGTTTTCCCGGTAATCCGTATTTGAA (site CAATGTTCTTT)” and “CAATGCTCATGGACCGGTTTTCCCGGTAATCCGTATTTGAA (site CAATTCTCTTT)” are the same in “recombinant UMI read abundance (log10)” value: 0 for the first, 0 for the second.

“CAATGCTCATGGACCGGTTTTCCCGGTAATCCGTATTTGAA (site CACTGCTCTTT)” and “CAATGCTCATGGACCGGTTTTCCCGGTAATCCGTATTTGAA (site CAGTGCTCTTT)” are within 0.2 log units of each other in “recombinant UMI read abundance (log10)” value: 0.0585 for the first, 0.102 for the second.

“CAATGCTCATGGACCGGTTTTCCCGGTAATCCGTATTTGAA (site CATTGCTCTTT)” and “CAATGCTCATGGACCGGTTTTCCCGGTAATCCGTATTTGAA (site CCATGCTCTTT)” are within 0.2 log units of each other in “recombinant UMI read abundance (log10)” value: 0.408 for the first, 0.461 for the second.

First: CAATGCTCATGGACCGGTTTTCCCGGTAATCCGTATTTGAA (site CGATGCTCTTT)
Second: CAATGCTCATGGACCGGTTTTCCCGGTAATCCGTATTTGAA (site CTATGCTCTTT)
The “recombinant UMI read abundance (log10)” value of the first is lower: 0.0125 for the first, 0.217 for the second.

“CAATGCTCATGGACCGGTTTTCCCGGTAATCCGTATTTGAA (site GAATGCTCTTT)” and “CAATGCTCATGGACCGGTTTTCCCGGTAATCCGTATTTGAA (site TAATGCTCTTT)” are within 0.2 log units of each other in “recombinant UMI read abundance (log10)” value: 0.00437 for the first, 0.0133 for the second.

Going from “CAATGCTCATGGACCGGTTTTCCCGGTAATCCGTATTTGTA (site CAATGCTCTTA)” to “CAATGCTCATGGACCGGTTTTCCCGGTAATCCGTATTTGTA (site CAATGCTCTTC)”, the “recombinant UMI read abundance (log10)” value falls from 3.1 to 0.746.

Going from “CAATGCTCATGGACCGGTTTTCCCGGTAATCCGTATTTGTA (site CAATGCTCTTG)” to “CAATGCTCATGGACCGGTTTTCCCGGTAATCCGTATTTGTA (site CAATGCTCTTT)”, the “recombinant UMI read abundance (log10)” value falls from 2.25 to 1.55.

“CAATTCCCATGGACCGGTTTTCCCGGTAATCCGTATTTGAT (site CAATTCCCTAA)” and “CAATTCCCATGGACCGGTTTTCCCGGTAATCCGTATTTGAT (site CAATTCCCTAC)” are within 0.2 log units of each other in “recombinant UMI read abundance (log10)” value: 0.00345 for the first, 0 for the second.

First: CAATTCCCATGGACCGGTTTTCCCGGTAATCCGTATTTGAT (site CAATTCCCTAG)
Second: CAATTCCCATGGACCGGTTTTCCCGGTAATCCGTATTTGAT (site CAATTCCCTAT)
The “recombinant UMI read abundance (log10)” value of the first is lower: 0 for the first, 1.7 for the second.

Going from “CAATTCCCATGGACCGGTTTTCCCGGTAATCCGTATTTGCG (site CAATTCCCTAG)” to “CAATTCCCATGGACCGGTTTTCCCGGTAATCCGTATTTGCG (site CAATTCCCTCG)”, the “recombinant UMI read abundance (log10)” value rises from 1.26 to 2.33.

Going from “CAATTCCCATGGACCGGTTTTCCCGGTAATCCGTATTTGCG (site CAATTCCCTGG)” to “CAATTCCCATGGACCGGTTTTCCCGGTAATCCGTATTTGCG (site CAATTCCCTTG)”, the “recombinant UMI read abundance (log10)” value rises from 0 to 1.67.

With “CAATTGCCATGGACCGGTTTTCCCGGTAATCCGTATTTGCT (site CAATTACCTAG)” the “recombinant UMI read abundance (log10)” value was 0.
